According to patent US11497212B2, “Substituted thiophenyl uracils, salts thereof and the use thereof as herbicidal agents” (Syngenta Crop Protection AG, priority 2017, dated 2022):

What was measured:
Format in all cases: in vivo
[1] = tested on: Triticum aestivum; assay: Crop compatibility post-emergence (greenhouse pot trial)
How it was run: (§1)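 Visual % rating about 3 weeks post-treatment against untreated plants (100% dead, 0% unaffected). Post-emergence spray of aqueous WP/EC preparations with 0.5% additive at 600 L/ha water, applied at one-leaf stage to greenhouse pot-grown crops in sandy loam.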

[2] = tested on: Oryza sativa; assay: as above
How it was run: as §1

[3] = tested on: Amaranthus retroflexus; assay: Herbicidal action post-emergence (greenhouse pot trial); settings: application rate 20 g/ha, scored visually after about 3 weeks vs untreated controls
How it was run: (§2)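 Weed seeds sown in sandy loam were grown in a greenhouse for 2–3 weeks and treated at the one-leaf stage. WP or EC formulations, with 0.5% additive, were sprayed on green parts at a water rate of 600 L/ha and at 80 g/ha or lower. Efficacy was scored visually about 3 weeks later against untreated controls.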

[4] = tested on: Alopecurus myosuroides; assay: as above; settings: application rate 20 g/ha, scored visually after about 3 weeks vs untreated controls
How it was run: as §2

[5] = tested on: Matricaria inodora; assay: as above; settings: application rate 20 g/ha, scored visually after about 3 weeks vs untreated controls
How it was run: as §2

[6] = tested on: Stellaria media; assay: as above; settings: application rate 20 g/ha, scored visually after about 3 weeks vs untreated controls
How it was run: as §2

[7] = tested on: Veronica persica; assay: as above; settings: application rate 20 g/ha
How it was run: as §2

[8] = tested on: Digitaria sanguinalis; assay: as above; settings: application rate 20 g/ha
How it was run: as §2

[9] = tested on: Polygonum convolvulus; assay: as above; settings: application rate 20 g/ha, scored visually after about 3 weeks vs untreated controls
How it was run: as §2

[10] = tested on: Pharbitis purpurea; assay: as above; settings: application rate 20 g/ha
How it was run: as §2

[11] = tested on: Viola tricolor; assay: as above; settings: application rate 20 g/ha
How it was run: as §2

[12] = tested on: Abutilon theophrasti; assay: as above; settings: application rate 20 g/ha, scored visually after about 3 weeks vs untreated controls
How it was run: as §2

[13] = tested on: Lolium rigidum; assay: as above; settings: application rate 20 g/ha, scored visually after about 3 weeks vs untreated controls
How it was run: as §2

[14] = tested on: Echinochloa crus-galli; assay: as above; settings: application rate 20 g/ha, scored visually after about 3 weeks vs untreated controls
How it was run: as §2

[15] = tested on: Setaria viridis; assay: as above; settings: application rate 20 g/ha, scored visually after about 3 weeks vs untreated controls
How it was run: as §2

[16] = tested on: Zea mays; assay: Crop compatibility post-emergence (greenhouse pot trial); settings: application rate 20 g/ha
How it was run: as §1

[17] = tested on: Glycine max; assay: Crop compatibility pre-emergence (greenhouse pot trial); settings: application rate 80 g/ha, effect vs untreated controls
Description: (§3) Seeds of mono- and dicotyledonous weeds and crop plants were laid out in plastic or organic plant pots and covered with soil. The compounds of the invention formulated in the form of wettable powders (WP) or emulsion concentrates (EC) were then applied to the surface of the covering soil as an aqueous suspension or emulsion with addition of 0.5% additive at a water application rate equivalent to 600 L/ha. After the treatment, the pots were placed in a greenhouse and kept under good growth conditions for the test plants. After about 3 weeks, the efficacy of the preparations was scored visually as a percentage by comparison with untreated controls. For example, 100% efficacy=plants have died, 0% efficacy=like control plants.
(§4) Crop compatibilities were also scored correspondingly.
(§5) The effects observed are reported here on selected crop plants by comparison with the untreated controls (values in %).

[18] = tested on: Zea mays; assay: as above; settings: application rate 80 g/ha, effect vs untreated controls
Description: as §3, §4, §5

[19] = tested on: Amaranthus retroflexus; assay: Herbicidal action pre-emergence (greenhouse pot trial); settings: scored after about 3 weeks
Description: as §3, with “control plants. Tables B1 to B16 below show the efficacies of selected compounds of the general formula (I) according to tables I.1 to I.60 on various harmful plants and an application rate corresponding to 320 g/ha or lower that were obtained by the aforementioned trial method.” for “control plants.”

[20] = tested on: Matricaria inodora; assay: as above; settings: scored after about 3 weeks
Description: as §3, with “control plants. Tables B1 to B16 below show the efficacies of selected compounds of the general formula (I) according to tables I.1 to I.60 on various harmful plants and an application rate corresponding to 320 g/ha or lower that were obtained by the aforementioned trial method.” for “control plants.”

[21] = tested on: Viola tricolor; assay: as above; settings: scored after about 3 weeks
Description: as §3, with “control plants. Tables B1 to B16 below show the efficacies of selected compounds of the general formula (I) according to tables I.1 to I.60 on various harmful plants and an application rate corresponding to 320 g/ha or lower that were obtained by the aforementioned trial method.” for “control plants.”

[22] = tested on: Abutilon theophrasti; assay: as above; settings: scored after about 3 weeks
Description: as §3, with “control plants. Tables B1 to B16 below show the efficacies of selected compounds of the general formula (I) according to tables I.1 to I.60 on various harmful plants and an application rate corresponding to 320 g/ha or lower that were obtained by the aforementioned trial method.” for “control plants.”

[23] = tested on: Echinochloa crus-galli; assay: as above; settings: application rate 320 g/ha, scored after about 3 weeks
Description: as §3, with “control plants. Tables B1 to B16 below show the efficacies of selected compounds of the general formula (I) according to tables I.1 to I.60 on various harmful plants and an application rate corresponding to 320 g/ha or lower that were obtained by the aforementioned trial method.” for “control plants.”

[24] = tested on: Pharbitis purpurea; assay: as above; settings: application rate 320 g/ha
Description: as §3, with “control plants. Tables B1 to B16 below show the efficacies of selected compounds of the general formula (I) according to tables I.1 to I.60 on various harmful plants and an application rate corresponding to 320 g/ha or lower that were obtained by the aforementioned trial method.” for “control plants.”

[25] = tested on: Setaria viridis; assay: as above; settings: application rate 320 g/ha, scored after about 3 weeks
Description: as §3, with “control plants. Tables B1 to B16 below show the efficacies of selected compounds of the general formula (I) according to tables I.1 to I.60 on various harmful plants and an application rate corresponding to 320 g/ha or lower that were obtained by the aforementioned trial method.” for “control plants.”

[26] = tested on: Veronica persica; assay: as above; settings: application rate 80 g/ha
Description: as §3, with “control plants. Tables B1 to B16 below show the efficacies of selected compounds of the general formula (I) according to tables I.1 to I.60 on various harmful plants and an application rate corresponding to 320 g/ha or lower that were obtained by the aforementioned trial method.” for “control plants.”

Row | SMILES | Triticum aestivum (Efficacy in %) ([1]; application rate 20 g/ha) [%] | Oryza sativa (Efficacy in %) ([2]; application rate 20 g/ha) [%] | Amaranthus retroflexus (Efficacy in %) [3] [%] | Alopecurus myosuroides (Efficacy in %) [4] [%] | Matricaria inodora (Efficacy in %) [5] [%] | Stellaria media (Efficacy in %) [6] [%] | Veronica persica (Efficacy in %) [7] [%] | Digitaria sanguinalis (Efficacy in %) [8] [%] | Polygonum convolvulus (Efficacy in %) [9] [%] | Pharbitis purpurea (Efficacy in %) [10] [%] | Viola tricolor (Efficacy in %) [11] [%] | Abutilon theophrasti (Efficacy in %) [12] [%] | Echinochloa crus-galli (Efficacy in %) [14] [%] | Setaria viridis (Efficacy in %) [15] [%] | Triticum aestivum (Efficacy in %) ([1]; application rate 5 g/ha) [%] | Glycine max (Efficacy in %) [17] [%] | Zea mays (Efficacy in %) [18] [%] | also measured
1 | Cn1c(C(F)(F)F)cc(=O)n(-c2cc(SCC(C)(C)C(=O)OC3CCOC3)c(Cl)cc2F)c1=O (stereo not drawn) [I.48-121] | 0 | 0 | 100 | 80 | 100 | 80 | 100 | 80 | 100 | 100 | 100 | 100 | – | – | – | – | – | –
2 | CC(C)C(Sc1cc(-n2c(=O)cc(C(F)(F)F)n(C)c2=O)c(F)cc1Cl)C(=O)NCC1CCCO1 (stereo not drawn) [I.6-221, 2-({2-Chloro-4-fluoro-5-[3-methyl-2,6-dioxo-4-(trifluoromethyl)-3,6-dihydropyrimidin-1(2H)-yl]phenyl}sulfanyl)-3-methyl-N-(tetrahydrofuran-2-ylmethyl)butanamide] | – | – | 100 | 90 | 100 | 80 | 100 | 100 | 100 | 100 | 100 | 100 | 80 | 100 | – | – | – | Lolium rigidum (Efficacy in %) [13]: 80%
3 | CC(Sc1cc(-n2c(=O)cc(C(F)(F)F)n(C)c2=O)c(F)cc1Cl)C(=O)OC1CCSCC1 (stereo not drawn) [I.1-132] | – | 0 | 100 | – | 100 | 80 | 100 | – | 100 | 100 | 100 | 100 | – | – | 10 | 20 | 0 | Zea mays (Efficacy in %) [16]: 20%; Amaranthus retroflexus (Efficacy in %) ([19]; application rate 80 g/ha): 100%; Matricaria inodora (Efficacy in %) ([20]; application rate 80 g/ha): 100%; Viola tricolor (Efficacy in %) ([21]; application rate 80 g/ha): 90%; Abutilon theophrasti (Efficacy in %) ([22]; application rate 80 g/ha): 100%
4 | COCCOCCOC(=O)C(C)Sc1cc(-n2c(=O)cc(C(F)(F)F)n(C)c2=O)c(F)cc1Cl (stereo not drawn) [I.1-23] | – | – | – | – | – | – | – | – | – | – | – | – | – | – | – | 0 | 10 | Oryza sativa (Efficacy in %) ([2]; application rate 5 g/ha): 10%; Amaranthus retroflexus (Efficacy in %) ([19]; application rate 320 g/ha): 100%; Matricaria inodora (Efficacy in %) ([20]; application rate 320 g/ha): 100%; Echinochloa crus-galli (Efficacy in %) [23]: 100%; Pharbitis purpurea (Efficacy in %) [24]: 100%; Viola tricolor (Efficacy in %) ([21]; application rate 320 g/ha): 100%; Abutilon theophrasti (Efficacy in %) ([22]; application rate 320 g/ha): 100%; Setaria viridis (Efficacy in %) [25]: 100%
5 | CC(Sc1cc(-n2c(=O)cc(C(F)(F)F)n(C)c2=O)c(F)cc1Cl)C(=O)OCC1CCCCO1 (stereo not drawn) [I.1-91] | – | 10 | 100 | – | 100 | – | 100 | – | 100 | 100 | 100 | 100 | – | – | 10 | 20 | 0 | Zea mays (Efficacy in %) [16]: 20%; Amaranthus retroflexus (Efficacy in %) ([19]; application rate 80 g/ha): 100%; Matricaria inodora (Efficacy in %) ([20]; application rate 80 g/ha): 100%; Veronica persica (Efficacy in %) [26]: 100%; Viola tricolor (Efficacy in %) ([21]; application rate 80 g/ha): 100%; Abutilon theophrasti (Efficacy in %) ([22]; application rate 80 g/ha): 100%
6 | COC(C)COC(=O)C(C)Sc1cc(-n2c(=O)cc(C(F)(F)F)n(C)c2=O)c(F)cc1Cl (stereo not drawn) [I.1-51] | 20 | – | 100 | 80 | 100 | 80 | 100 | 100 | 100 | 100 | 100 | 100 | 100 | 100 | – | – | – | –
7 | CCC(C)C(Sc1cc(-n2c(=O)cc(C(F)(F)F)n(C)c2=O)c(F)cc1Cl)C(=O)NCC1CCCO1 (stereo not drawn) [I.5-221] | 20 | – | 100 | – | 100 | 90 | 100 | 80 | 100 | 100 | 100 | 100 | 80 | 100 | – | – | – | Lolium rigidum (Efficacy in %) [13]: 80%
8 | CCC(Sc1cc(-n2c(=O)cc(C(F)(F)F)n(C)c2=O)c(F)cc1Cl)C(=O)OCC1CCCOC1 (stereo not drawn) [I.2-92, Tetrahydro-2H-pyran-3-ylmethyl 2-({2-chloro-4-fluoro-5-[3-methyl-2,6-dioxo-4-(trifluoromethyl)-3,6-dihydropyrimidin-1(2H)-yl]phenyl}sulfanyl)butanoate] | – | – | 100 | 80 | 100 | 100 | 100 | 100 | 100 | 100 | 100 | 100 | 100 | 100 | 20 | – | – | –
9 | CCC(Sc1cc(-n2c(=O)cc(C(F)(F)F)n(C)c2=O)c(F)cc1Cl)C(=O)OCC1CCCCO1 (stereo not drawn) [I.2-91, Tetrahydro-2H-pyran-2-ylmethyl 2-({2-chloro-4-fluoro-5-[3-methyl-2,6-dioxo-4-(trifluoromethyl)-3,6-dihydropyrimidin-1(2H)-yl]phenyl}sulfanyl)butanoate] | – | – | 100 | 90 | 100 | 80 | 100 | – | 100 | 100 | 100 | 100 | 100 | 100 | 20 | – | – | –
